Test results reported in patent publication US12458621B1, “Application of genipin beta-methyl derivative gen-17 in preparation of drug for prevention and treatment of acute severe pneumonia” (KUNMING MEDICAL UNIVERSITY, priority 2024, dated 2025).

Tests used:
Format in all cases: in vivo, Kunming mice
IL-6 [1] = experiment: IL-6 content in BALF by ELISA
Experimental: (§1) A total of 144 SPF-grade healthy Kunming mice, aged 5-7 weeks and weighing 18-22 g, are weighed and randomly allocated into six experimental groups: control group (NS), model group (LPS), dexamethasone group (DEX, […] per kilogram abbreviated as mg/kg), genipin beta-methyl derivative low-dose group (12.5 mg/kg), genipin beta-methyl derivative medium-dose group (25 mg/kg), and genipin beta-methyl derivative high-dose group (50 mg/kg), 24 animals per group, in which 12 animals are used to take lung tissue for the detection of other indicators, and another 12 animals are used to collect BALF.
(§2) All mice are gavaged with a same volume of 0.9% normal saline once a day in the NS group and the LPS group, DEX solution (0.39 mg/kg) is gavaged once a day in the DEX group, low-dose Gen-17 solution (12.5 mg/kg) is gavaged once a day in the medium-dose Gen-17 group, medium-dose Gen-17 solution (25 mg/kg) is gavaged once a day in the high-dose Gen-17 group, and high-dose Gen-17 solution (50 mg/kg) is gavaged once a day in the high-dose Gen-17 group. The dosage is converted according to the weight of the mice, and the gavage volume is 20 milliliters per kilogram (mL/kg), and the gavage is continued for 3 days. One hour after the gavage on the third day, the ALI model is established by tracheal instillation of LPS solution. […]

HO-1 = HO-1 protein in lung tissue by WB; conditions: Gen-17 12.5, 25, 50 mg/kg gavage, ALI mice
Experimental: as §1, with “BALF. […]” for “BALF.”
(§3) Samples are collected 24 hours after the animal model is established. […] Lung tissues are collected and the whole lung wet weight is measured. […] After tidying, the lungs are photographed, excess tissues such as the trachea are cleared away, and the wet weight of the whole lung is measured to calculate the lung index. • (3) The upper lobe of the left lung is fixed in 4% neutral paraformaldehyde, fixed for 24 hours, paraffin-embedded and sectioned for HE staining. • (4) The remaining lung tissues are put into centrifugal tubes separately, quickly frozen in liquid nitrogen, and then stored at −80° C. after the experiment, which is used for the detection of MDA, SOD, western blotting (WB) and reverse transcription polymerase chain reaction (RT-PCR). […]

IL-6 [2] = experiment: IL-6 mRNA in lung tissue by qRT-PCR
Experimental: as §1, with “BALF. […]” for “BALF.”
as §3

[3] = tested on: JNK phosphorylated protein; experiment: JNK phosphorylated protein in lung tissue by WB
Experimental: as §1, with “BALF. […]” for “BALF.”
as §3

iNOS = iNOS mRNA in lung tissue by qRT-PCR; conditions: Gen-17 (12.5, 25, 50 mg/kg gavage) compared with LPS group (P<0.001)
Experimental: as §1, with “BALF. […]” for “BALF.”
as §3

[4] = tested on: p38 phosphorylated protein; experiment: p38 phosphorylated protein in lung tissue by WB
Experimental: as §1
as §2, with “days.” for “days. One hour after the gavage on the third day, the ALI model is established by tracheal instillation of LPS solution.”
as §3
The lung tissue is taken out from −80° C., and its weight is accurately measured. […]

NF-κB p65 = NF-κB p65 protein in lung tissue by WB
Experimental: as §1, with “BALF. […]” for “BALF.”
as §3

IL-1β = IL-1β content in BALF by ELISA
Experimental: as §1, §2

TNF-α = TNF-α mRNA in lung tissue by qRT-PCR
Experimental: as §1, with “BALF. […]” for “BALF.”
as §3

[5] = low-dose Gen-17 12.5 mg/kg gavage, compared with DEX group (P<0.01)
[6] = Gen-17 (12.5, 25, 50 mg/kg gavage) compared with LPS group (P<0.001)
[7] = low-dose Gen-17 12.5 mg/kg gavage, compared with DEX group (P<0.001)
[8] = after drug treatment, compared with LPS group

## COC(=O)C1=CO[C@@H](OC)[C@@H]2C(COC(=O)c3cccc(Br)c3)=CC[C@H]12 [Gen-17, genipin beta-methyl derivative]
IL-6 [1]; Gen-17 groups (12.5, 25, 50 mg/kg gavage) compared with LPS group
  content of IL-6 in BALF: reduce the contents of inflammatory cytokines
IL-6 [1]; [5]
  IL-6 level in BALF: statistically significant reduction
HO-1
  expression of HO-1 protein in lung tissue, overall result: upregulate the expression of Nrf2 and HO-1 protein
IL-6 [2]; [6]
  mRNA expression of IL-6 in lung tissue: significantly reduce the expression
IL-6 [2]; [7]
  mRNA expression of IL-6 in lung tissue: statistical significance
[3]; [8]
  expression of JNK phosphorylated protein in lung tissue: down-regulate the expression of p38, ERK and JNK proteins
[3]; low-dose Gen-17 12.5 mg/kg gavage, compared with DEX group
  expression of JNK phosphorylated protein in lung tissue: statistically significant (P<0.05)
iNOS
  mRNA expression of iNOS in lung tissue: significantly reduce the expression
[4]; Gen-17 groups (12.5, 25, 50 mg/kg gavage) compared with DEX group (P>0.05)
  expression of phosphorylated protein p38 in lung tissue: no statistically significant change
[4]; [8]
  expression of p38 phosphorylated protein in lung tissue: down-regulate the expression of p38, ERK and JNK proteins
[4]; low-dose Gen-17 12.5 mg/kg gavage, compared with LPS group, excepted from significance (P<0.05)
  expression of p38 phosphorylated protein in lung tissue, statistical significance of decrease: except for the low-dose Gen-17 group
NF-κB p65; Gen-17 groups (12.5, 25, 50 mg/kg gavage) compared with NS group (P<0.001, P<0.05)
  expression of NF-κB p65 protein in lung tissue: significantly increased
NF-κB p65; after drug treatment, compared with LPS group (P<0.05)
  expression of NF-κB p65 protein in lung tissue: down-regulate the expression of NF-κB p65 protein
IL-1β; Gen-17 groups (12.5, 25, 50 mg/kg gavage) compared with LPS group (P<0.05)
  content of IL-1β in BALF: reduce the contents of inflammatory cytokines
IL-1β; [5]
  IL-1β level in BALF: statistically significant reduction
TNF-α; [6]
  mRNA expression of TNF-α in lung tissue: significantly reduce the expression
TNF-α; [7]
  mRNA expression of TNF-α in lung tissue: statistical significance
